In patent publication US5049389A, “Novel liposome composition for the treatment of interstitial lung diseases” (priority 1989, dated 1991):

Legend:
[1] = system: chronic relapsing Stage II and III pulmonary sarcoidosis; conditions: 1200 or 2400 ug daily inhaled via Nebuhaler; cited from earlier work
[2] = Thin layer chromatographic assay of lung samples for BDP metabolism; format: in vivo, rat; conditions: thin layer chromatography
[3] = Partition between octanol and phosphate buffer saline; format: physicochemical; conditions: pH 7.4
Excerpt: Nearly all (95%) of the BDP was associated with the octanol.

[4] = rat, in vivo
Experimental: The amount of drug in the lungs at time zero can be used to determine the amount of free drug in the formulation, since free drug is very rapidly absorbed from the lungs (Dose=free drug+amount in lungs at t=0). This amount also includes any liposome associated drug that was rapidly released ("burst" effect).
The absorption kinetics (sustained release) was determined by measuring percentage of ^14 C BDP remaining in the lungs following the intratracheal instillation of the above described five liposome formulations and one intravenous administration of free drug.
All studies were performed in male Sprague-Dawley rats weighing 250 to 450 g. After fasting for 16 hours, animals were anesthetized by i.m. injection of ketamine (25 mg/kg), xylazine (5 mg/kg) and acepromazine (0.5 mg/ml). During the procedure the animal's body temperature was maintained with a 37° C. heating pad. Additional anesthetic was administered as required, using half the original dose. A midline incision was made in the neck and the right jugular vein and left carotid artery were cannulated with short lengths of polyethylene tubing to which a 23 ga Luer stub adapter (Clay Adams #7565) and plastic 3-way stopcock (Argyle #173518) were attached. Blood samples (0.5-4 ml) were removed from the carotid arterial cannula after first flushing with fresh blood to clear the line. Blood volume removed was replaced with an equal volume of 5% dextrose solution containing 50 U/ml of heparin via the jugular cannula. For intravenous (i.v.) injection studies, drug was injected into the venous cannula with a 500 ul glass syringe via a 22 ga needle and injection cap and flushed with 0.5 to 1.0 ml dextrose solution.
For intratracheal (i.t.) instillation of BDP formulations, (Table V) the trachea was cannulated with a 4 cm long section of Teflon tubing (1.2 mm I.D.), inserted at the level of the fifth tracheal ring below the thyroid cartilage and tied in place with a suture. Excess fluid in the trachea was aspirated through tubing attached to a syringe. […]

BDP associated with the octanol [3] [%]	drug absorbed before the first time point [4]	apparent half-life in lungs (elimination of released radiolabel, not absorption) ([4]; 0.008 mg/kg) [h]	^14 C BDP removed from the lungs (absorbed) ([4]; 0.5 h) [%]	Structure (SMILES)	improvement in pulmonary sarcoidosis [1]	metabolism of BDP prior to leaving the lungs [2]
–	–	–	–	CCCC1O[C@@H]2C[C@H]3[C@@H]4CCC5=CC(=O)C=C[C@]5(C)[C@H]4[C@@H](O)C[C@]3(C)[C@]2(C(=O)CO)O1 (stereo partly drawn) [budesonide]	showed improvement in chronic relapsing Stage II and III pulmonary sarcoidosis	–
95	over 98%	3.0	99.7	CCC(=O)OCC(=O)[C@@]1(OC(=O)CC)[C@@H](C)C[C@H]2[C@@H]3CCC4=CC(=O)C=C[C@]4(C)[C@@]3(Cl)[C@@H](O)C[C@@]21C [Beclomethasone dipropionate, beclomethasone dipropionate]	–	no detectable metabolism of BDP prior to leaving the lungs
